Data published in paper PMC13369845 (Oncogenesis, 2026).
Where no end group is shown, it is not given here.

Legend:
[1] = test system: Vemurafenib-resistant A375 cells; experiment: Cell viability (CCK-8) of Vemurafenib-resistant A375 cells; type: cell-based, human
Protocol: Viability was determined using the CCK-8 reagent (APExBIO-K1018). Absorbance was measured at 450 nm using a Varioskan LUX reader.
Vemurafenib-resistant A375 cells were generated following established protocol. Parental cells were treated with 100 nM Vemurafenib (SelleckChem #S1267) for 2 weeks, followed by stepwise doubling of drug concentration every 2 weeks up to 3.2 µM. Surviving cells in maintenance culture containing 2 µM drug were used for downstream studies.

[2] = In vivo plasma pharmacokinetics; set-up: species or system mouse (C57BL/6); conditions: male C57BL/6 mouse, 5 mg/kg intraperitoneal, LC-MS/MS
Protocol: Blood samples (100 µl) were obtained at 0, 0.25, 0.5, 1, 2, 4, 8, and 24 h via tail vein bleeds.

[3] = test system: B16F10-derived tumors in C57BL/6 mice; experiment: B16F10 melanoma mouse tumor model; type: in vivo; conditions: CST 10 mg/kg intraperitoneally, three times per week
Protocol: Age-matched male and female C57BL/6 mice (7–9 weeks, n = 9) were subcutaneously injected with 5 × 10⁴ B16-F10 cells in 100 µL PBS. […] Tumor dimensions were measured with calipers, and volume was calculated using the formula V = (length × width²)/2. Mice were euthanized 22 days post-inoculation by inhalational isoflurane, that follow the institutional IACUC protocol and AVMA guideline for Euthanasia of animals (2020). […] Animals were continuously monitored till the loss of righting reflex and response to toe pinch was absent, thus confirming a surgical plane of anesthesia. Tissues were collected when the animals went into deep anesthesia and euthanasia was finally completely by exsanguination. […]
Fixed tumors were paraffin-embedded and sectioned (5 µm). […] The area fraction was calculated as the percentage of pixels that exceeded the threshold within the defined region of interest (ROI). Quantification was performed using Fiji (ImageJ), which computes the area fraction as the ratio of the threshold-positive area to the total ROI area, expressed as a percentage.
Apoptotic nuclei were detected in tumor sections using the CF®594 TUNEL Assay Kit (Biotium #30064). […] Fluorescence images were obtained using a Keyence microscope.
For tissue lysates from wild-type and CST-knockout (CST-KO) mice, 10 µg of total protein was analyzed by immunoblotting using an anti-CST antibody. […]

[4] = In vitro plasma stability; type: in vitro ADME, mouse (C57BL/6); conditions: LC-MS/MS
Protocol: Each aliquot (50 µl) was mixed with 150 µl methanol, vortexed, spun, removed the supernatant and reconstituted the pellet with 150 µl 10% formic acid in water. The sample was vortexed and spun, and a 100 µl aliquot was taken, diluted 1:1 with 10 mM ammonium bicarbonate, and analyzed by LC-MS/MS. Using the remaining vs. time dataset, we performed a first-order decay analysis by fitting a linear regression to the natural log-transformed percent remaining values (excluding 0% and t = 0 anchor point) to plot the graph.

Compound | cell viability of A375 resistant cells, single agents and combination ([1]; Vemurafenib 2 µM, CST 2 µM, alone or combined, after 48 h) | IC50 of resistant cells relative to parental cells ([1]; Vemurafenib-resistant vs parental A375) | Cmax ([2]; ip, plasma from tail vein bleeds 0-24 h, read-out: Cmax (maximum concentration)) | Tmax (time to reach Cmax) ([2]; plasma) | t1/2 (half-life) in vivo ([2]; plasma) | body weight and liver histology [3] | intact material remaining ([4]; in vitro mouse plasma, 5 µg CST/ml, at ~5.6 h) | apparent first-order rate constant k ([4]; in vitro, C57BL/6 mouse plasma spiked with 5 µg CST/ml, aliquots over 24 h, linear regression of ln(% remaining) vs time, R^2 = 0.971)
CCCS(=O)(=O)Nc1ccc(F)c(C(=O)c2c[nH]c3ncc(-c4ccc(Cl)cc4)cc23)c1F [Vemurafenib] | little effect on cell viability | > 6 fold | – | – | – | – | – | –
SSMKLSFRARAYGFRGPGPQL [CST, Catestatin] | – | – | 160 ng/mL | 15 min | 89.4 min | No major changes in body weight or liver histology | ~ 50% | 0.1246 h⁻¹
